# Experimental data as given in patent US8846044B2, “Stabilizing alkylglycoside compositions and methods thereof” (Aegis Therapeutics, LLC, priority 2006, dated 2014).
# Like-named read-outs stand apart in the source and are kept apart here.
# B1: Betaseron®: beta interferon 1b, Lot number YA0549A (protein, UniProt P01574 22-187, looked up, variant C17S)
# Interferon beta: MSYNLLGFLQRSSNFQSQKLLWQLNGRLEYCLKDRMNFDIPEEIKQLQQFQKEDAALTIYEMLQNIFAIFRQDSSSTGWNETIVENLLANVYHQINHLKTVLEEKLEKEDFTRGKLMSSLHLKRYYGRILHYLKAKEYSHCAWTIVRVEILRNFYFINRLTGYLRN
# modifications: interferon beta-1b, lacks N-terminal Met
# Assays:
# isolated nasal cilia = conditions: cited from earlier work
# nasal mucosa = conditions: cited from earlier work
# [1] = in water; cited from earlier work
# people with AIDS = conditions: cited from earlier work; for Patients with improved neuro-psychological performance: early AIDS dementia (Kosten et al., 1997)
# HIV = test: Inhibition of HIV infectivity in vitro by stored DAPTA solutions; type: cell-based
# Description: Aggregation is discovered to be associated with a loss of biological activity in vitro. Typically, the recommended protocol is to have DAPTA stored at 0.1 mM solutions in water at 4° C.
# Aggregation is reduced in the presence of trifluoroethanol (TFE). TFE was selected because of its property of reducing certain types of protein-protein interactions. DAPTA was dissolved in either distilled water, or solutions containing between 60% and 100% TFE. Aggregation was evaluated by assaying inhibition of HIV infectivity, in vitro. […] Also, TFE is capable of disassociating preformed aggregates of DAPTA. Aggregates of DAPTA, formed in distilled water were disrupted by addition of TFE to 80%, as measured by EM.
# envelop (gp120) binding = conditions: 1987 report; cited from earlier work
# HIV BaL [2] = type: cell-based, HIV-1; conditions: dried, in water about three days
# [3] = DAPTA fibril formation in solution (EM, FTIR, CD, dye binding); type: physicochemical; conditions: for Time to form aggregates: distilled water, 10 mg/ml
# Description: Preparation of DAPTA solutions. DAPTA was dissolved in water, and solutions maintained at various temperatures and times. To prepare fibrils, DAPTA was prepared at 10 mgs/mL in water and stored overnight at 4° C.
# Determining fibril formation.
# Congo red was dissolved in PBS (5 mM potassium phosphate, 150 mM NaCl, pH 7.4) to a concentration of 7 ug/mL. The solution was chilled to 4° C., and DAPTA added as a 10 mg/mL stock solution in water, to yield final peptide concentration in the dye solution of 0.48 mg/mL. Peptide solution immediately after dissolution of powder was compared with an aged stock solution containing aggregated peptides. Spectra were collected between 400-700 nm, at 4° C.
# Fibril formation of peptide T or analog thereof can also be determined using Circular Dichroism (CD) spectroscopy. Ten mg/mL solutions in water of either freshly prepared peptide or containing fibrillar aggregates was added to distilled water at 4° C. to a concentration of 50 ug/mL. CD spectra were collected on a Jasco model J-810 spectrometer using a 0.1 cm path length quartz cuvette, between 190-250 nm, with a […] interval, and a response time of 2 sec.
# Still another method of determining fibril formation of peptide T or analog thereof is performed using Fourier Transform Infrared (FTIR) Spectroscopy. DAPTA was dissolved in deuterated water, to a concentration of 10 mg/ml and incubated under temp and time conditions that promote fibril formation. 25 ul samples were then placed in a pre-cooled transmission cell with NaCl windows separated by a 6 um spacer. FTIR spectra were collected on a BioRad FTS-175C Fourier transform spectrometer in transmission mode using a DTGS detector. 2506 interferograms were recorded with a 2 cm-1 resolution. Water vapor was subtracted and the spectra baselines corrected.
# HIV BaL [4] = type: cell-based, HIV-1; conditions: dried
# Description: Inhibition of HIV infection is studied by utilizing an infection assay in which GHOST CD4 CCR5 cells are infected with HIV BaL, an R5 tropic isolate (Ruff, M R et al., 2001). Infection is detected via viral induction of the hGFP gene (green fluorescent protein) 48 hrs post-infection. Trays are measured in a plate reader to determine fluorescence intensity. All infections are performed by adding fresh culture medium containing approximately 1,000 infectious units of HIV-1 per well (96-well plates). […]
# The peptide was dissolved in the indicated concentration of TFE in water and then shaken or agitated for 24 hrs at 37° C. The peptide was subsequently dried down, and the TFE/water mixture removed under vacuum. […] Although TFE is removed, residual traces of TFE within acceptable range for human consumption may remain.
# Inhibition of HIV infection was studied by utilizing an infection assay using GHOST CD4 as previously described by Ruff, M R et al., 2001. CCR5 cells are infected with HIV BaL, an R5 tropic isolate. Infection is detected via viral induction of the hGFP gene (green fluorescent protein) about 48 hours post-infection. Trays were measured in a plate reader to determine fluorescence intensity. All infections were performed by adding fresh culture medium containing approximately 1,000 infectious units of HIV-1 per well (96-well plates).
# Again, the peptide was then evaporated or dried down, and resuspended in an aqueous solution, e.g., water for about three days, and tested for anti-HIV activity, as above.
# [5] = Light scatter of beta interferons, Pramlintide and calcitonin with and without dodecyl maltoside; conditions: 37° C., 150 RPM, 38 day test period
molecule,measurement,setting,value
benzalkonium chloride [BAC],Effect on isolated nasal cilia in vitro,isolated nasal cilia,ciliotoxic
same,Saccharine transport time and proinflammatory indicators in vivo,nasal mucosa,did not alter saccharine transport time
same,Damage to the nasal mucosa,nasal mucosa; in vivo,no significant damage to the nasal mucosa
same,Nasal irritation,nasal mucosa; in vivo,no discernible negative effects
same,Nasal mucosal function,nasal mucosa; in vivo,no detectable effect on the nasal mucosal function
CCCCCCCCCCCCCO[C@@H]1O[C@H](CO)[C@@H](OC2OC(CO)C(O)C(O)C2O)[C@H](O)[C@H]1O (stereo in doubt) [Tridecyl maltoside],CMC,[1],0.03 mM
CCCCCCCCO[C@@H]1O[C@H](CO)[C@@H](O[C@H]2O[C@H](CO)[C@@H](O)[C@H](O)[C@H]2O)[C@H](O)[C@H]1O [Octyl maltoside],CMC,[1],19.5 mM
CCCCCCCCCCCCO[C@@H]1O[C@H](CO)[C@@H](O[C@H]2O[C@H](CO)[C@@H](O)[C@H](O)[C@H]2O)[C@H](O)[C@H]1O [Dodecyl β-D-maltoside],CMC,[1],0.17 mM
Sucrose dodecanoate,CMC,[1],0.3 mM
D-ala^1-Peptide T-amide [DAPTA],Neuropsychological performance versus placebo,"people with AIDS; 2 mg three times daily intranasally, at least four months (Heseltine et al., 1998)",no difference in neuropsychological performance
same,Patients with improved neuro-psychological performance,people with AIDS; high dose (15 mg daily),4/5
same,Persistently infected monocyte reservoir,"people with AIDS; human, in vivo",greatly reduced or flushed to undetectable levels in all patients
same,Patients with improved neuro-psychological performance,people with AIDS; low dose (1.5 mg daily),1/4
same,Lower limb pain in HIV-related peripheral neuropathy,"people with AIDS; nine individuals, subcutaneously 10 mg daily (MacFadden and Doob 1991)",complete or subjectively significant resolution of lower limb pain
same,Adverse drug effects,"people with AIDS; nine individuals, subcutaneously (MacFadden and Doob 1991)",No adverse drug effects were noted
same,Cognitive and neuromotor function versus controls,"people with AIDS; phase I, 0.1 to 3.2 mg/kg/day intravenously, moderate impairment (Bridge et al. 1989)",Cognitive and neuromotor function improved
same,Painful peripheral neuropathy versus placebo,"people with AIDS; phase II double-blind, 6 mg/day for 12 weeks (Simpson et al. 1996)",no statistically significant differences
same,Time to substantial loss of activity (HIV uptake inhibition in vitro),HIV; 0.1 mM solution in water at 4° C.,about 6 weeks
same,Activity after storage (inhibition of HIV infectivity in vitro),HIV; stored in TFE between 60% and 100% versus water,retained more activity
same,Concentration that blocks envelop (gp120) binding and inhibits viral infectivity,envelop (gp120) binding,10 pM
same,Percent Reduction in HIV Infection,"HIV BaL [2]; 80% TFE, shaken about 24 hours at Room Temp.",70 ± 6%
same,Percent Reduction in HIV Infection,"HIV BaL [2]; about 80% TFE/water, shaken 12 hrs at 37 degrees",70 ± 4%
same,Percent Reduction in HIV Infection,"HIV BaL [2]; about 80% TFE/water, shaken 48 hrs at 37 degrees",100 ± 3%
same,Dissociation of aggregates on warming,"[3]; 5 mg/mL in 0.45% NaCl, warmed to 37° C. for about 17-24 hours with shaking",reversibly dissociate
same,Time to observable fibril formation,"[3]; 0.9% saline (10 mg/mL), room or ambient temperature",≤ 48 h
same,Time to observable fibrillization,"[3]; 0.9% saline (10 mg/mL), stored at 4° C.",less than 1 hour
same,"Effect of TFE on preformed aggregates, by EM","[3]; aggregates formed in distilled water, TFE added to 80%",disrupted
same,Time to form aggregates,[3]; 4 deg. C.,≤ 2 h
same,Time to form aggregates,[3]; room temperature,24 to 170 h
same,Percent Reduction in HIV Infection,"HIV BaL [4]; 0.1 nM DAPTA, TFE Concentration 0 %, shaken 24 hrs at 37° C., stored in water about 3 days",0 ± 2%
same,Percent Reduction in HIV Infection,"HIV BaL [4]; 0.1 nM DAPTA, TFE Concentration 20 %, shaken 24 hrs at 37° C., stored in water about 3 days",0 ± 3%
same,Percent Reduction in HIV Infection,"HIV BaL [4]; 0.1 nM DAPTA, TFE Concentration 40 %, shaken 24 hrs at 37° C., stored in water about 3 days",0 ± 2%
same,Percent Reduction in HIV Infection,"HIV BaL [4]; 0.1 nM DAPTA, TFE Concentration 60 %, shaken 24 hrs at 37° C., stored in water about 3 days",20 ± 4%
same,Percent Reduction in HIV Infection,"HIV BaL [4]; 0.1 nM DAPTA, TFE Concentration 80 %, shaken 24 hrs at 37° C., stored in water about 3 days",100 ± 5%
same,Percent Reduction in HIV Infection,"HIV BaL [4]; 0.1 nM DAPTA, TFE Concentration 100 %, shaken 24 hrs at 37° C., stored in water about 3 days",98 ± 3%
same,Percent Reduction in HIV Infection,"HIV BaL [4]; 80% TFE, shaken about 24 hours at 37 ° C., in water about three days",100 ± 5%
same,Percent Reduction in HIV Infection,"HIV BaL [4]; about 80% TFE/water, shaken 24 hrs at 37 degrees, in water about three days",100 ± 3%
CCCCCCCCCCCCCCO[C@@H]1O[C@H](CO)[C@@H](O[C@@H]2O[C@@H](CO)[C@H](O)[C@@H](O)[C@@H]2O)[C@H](O)[C@H]1O (stereo in doubt) [Tetradecyl maltoside],CMC,[1],0.01 mM
CCCCCCCCCCO[C@@H]1O[C@H](CO)[C@@H](O[C@H]2O[C@H](CO)[C@@H](O)[C@H](O)[C@H]2O)[C@H](O)[C@H]1O [Decyl maltoside],CMC,[1],1.8 mM
B1,Aggregation as increase in light scatter,[5],much larger increase in light scatter
same,"Stabilization by 0.2% Dodecyl maltoside, in words",[5]; light scatter at 500 nm,greatest stabilization effect
